Experimental findings from PMC8171091, “Tanshinone I, a new EZH2 inhibitor restricts normal and malignant hematopoiesis through upregulation of MMP9 and ABCG2” (Theranostics, 2021) are described below.

Experiment [1] has as its target EZH2 (zEZH2) (Danio rerio, UniProt Q08BS4). The experiment in a line: SPR (Biacore T200), EZH2 immobilized on CM5 chip. In kind it is binding.
The target of experiment [2] is T1, EZH2 (wild type PRC2 complex) (Homo sapiens, UniProt Q15910).
T1 construct: wild type PRC2 complex (31387, Active Motif); with PRC2 complex (EED, SUZ12)
T1 sequence (Q15910 whole entry): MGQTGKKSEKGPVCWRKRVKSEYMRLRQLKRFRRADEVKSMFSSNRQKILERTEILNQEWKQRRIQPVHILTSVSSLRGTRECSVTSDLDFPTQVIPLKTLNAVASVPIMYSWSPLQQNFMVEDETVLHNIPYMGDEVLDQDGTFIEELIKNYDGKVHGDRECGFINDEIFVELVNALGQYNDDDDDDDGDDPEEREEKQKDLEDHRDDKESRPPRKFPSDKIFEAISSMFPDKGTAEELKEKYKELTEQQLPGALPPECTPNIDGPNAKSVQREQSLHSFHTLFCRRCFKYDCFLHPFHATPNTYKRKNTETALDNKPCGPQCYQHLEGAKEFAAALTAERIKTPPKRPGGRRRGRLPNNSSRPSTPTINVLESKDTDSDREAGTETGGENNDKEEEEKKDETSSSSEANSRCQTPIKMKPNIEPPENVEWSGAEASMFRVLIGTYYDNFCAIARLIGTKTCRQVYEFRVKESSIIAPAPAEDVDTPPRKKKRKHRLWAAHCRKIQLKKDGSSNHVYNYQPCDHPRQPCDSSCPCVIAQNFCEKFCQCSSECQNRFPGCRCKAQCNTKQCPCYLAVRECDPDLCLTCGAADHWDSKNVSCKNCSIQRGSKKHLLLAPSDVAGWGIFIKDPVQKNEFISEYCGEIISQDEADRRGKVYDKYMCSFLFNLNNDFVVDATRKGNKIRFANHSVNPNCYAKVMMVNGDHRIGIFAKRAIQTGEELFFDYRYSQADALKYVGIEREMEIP
T1 sequence (O75530 2-441 partner): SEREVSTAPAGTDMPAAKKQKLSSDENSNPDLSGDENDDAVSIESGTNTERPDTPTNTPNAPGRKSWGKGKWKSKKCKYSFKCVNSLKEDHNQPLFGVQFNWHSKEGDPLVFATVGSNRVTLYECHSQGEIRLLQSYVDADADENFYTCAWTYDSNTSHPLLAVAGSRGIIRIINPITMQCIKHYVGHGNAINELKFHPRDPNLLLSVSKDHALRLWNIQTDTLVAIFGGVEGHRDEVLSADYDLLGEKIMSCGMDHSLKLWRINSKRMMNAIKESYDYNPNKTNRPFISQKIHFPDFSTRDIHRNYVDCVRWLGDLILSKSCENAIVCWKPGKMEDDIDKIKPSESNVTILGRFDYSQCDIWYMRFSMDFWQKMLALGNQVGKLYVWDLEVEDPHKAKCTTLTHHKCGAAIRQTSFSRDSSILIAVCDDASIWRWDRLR
T1 sequence (Q15022 whole entry partner): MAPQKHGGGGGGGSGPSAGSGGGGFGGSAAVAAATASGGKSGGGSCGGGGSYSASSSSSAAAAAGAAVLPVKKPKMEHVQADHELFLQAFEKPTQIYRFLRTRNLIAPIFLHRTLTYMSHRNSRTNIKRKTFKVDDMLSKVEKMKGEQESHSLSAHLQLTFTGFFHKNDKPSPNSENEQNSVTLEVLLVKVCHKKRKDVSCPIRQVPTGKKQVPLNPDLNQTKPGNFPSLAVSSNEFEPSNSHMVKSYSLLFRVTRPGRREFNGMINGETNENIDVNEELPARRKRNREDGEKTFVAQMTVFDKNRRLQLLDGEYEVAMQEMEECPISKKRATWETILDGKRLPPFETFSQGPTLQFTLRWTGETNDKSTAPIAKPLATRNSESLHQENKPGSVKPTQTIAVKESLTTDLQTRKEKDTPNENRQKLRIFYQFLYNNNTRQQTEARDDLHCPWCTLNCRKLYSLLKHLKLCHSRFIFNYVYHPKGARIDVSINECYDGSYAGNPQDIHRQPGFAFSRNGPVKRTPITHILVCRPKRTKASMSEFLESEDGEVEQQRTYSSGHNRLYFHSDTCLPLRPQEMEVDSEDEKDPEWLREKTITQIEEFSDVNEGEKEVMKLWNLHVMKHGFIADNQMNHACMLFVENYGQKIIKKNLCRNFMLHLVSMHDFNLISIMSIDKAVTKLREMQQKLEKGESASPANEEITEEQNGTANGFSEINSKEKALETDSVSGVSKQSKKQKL
T1 sequence (Q09028 2-425 partner): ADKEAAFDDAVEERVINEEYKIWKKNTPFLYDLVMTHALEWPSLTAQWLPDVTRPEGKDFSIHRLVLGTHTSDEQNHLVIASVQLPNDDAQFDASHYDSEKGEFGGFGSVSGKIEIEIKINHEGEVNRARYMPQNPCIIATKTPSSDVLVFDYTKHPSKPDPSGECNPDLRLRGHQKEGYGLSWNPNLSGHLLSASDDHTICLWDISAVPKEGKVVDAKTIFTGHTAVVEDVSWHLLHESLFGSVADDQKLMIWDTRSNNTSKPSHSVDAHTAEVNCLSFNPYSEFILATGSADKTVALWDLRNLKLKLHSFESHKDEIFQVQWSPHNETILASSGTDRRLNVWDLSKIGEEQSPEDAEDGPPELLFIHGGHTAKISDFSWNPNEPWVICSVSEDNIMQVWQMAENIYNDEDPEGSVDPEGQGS
T1 sequence (Q6ZN18 2-517 partner): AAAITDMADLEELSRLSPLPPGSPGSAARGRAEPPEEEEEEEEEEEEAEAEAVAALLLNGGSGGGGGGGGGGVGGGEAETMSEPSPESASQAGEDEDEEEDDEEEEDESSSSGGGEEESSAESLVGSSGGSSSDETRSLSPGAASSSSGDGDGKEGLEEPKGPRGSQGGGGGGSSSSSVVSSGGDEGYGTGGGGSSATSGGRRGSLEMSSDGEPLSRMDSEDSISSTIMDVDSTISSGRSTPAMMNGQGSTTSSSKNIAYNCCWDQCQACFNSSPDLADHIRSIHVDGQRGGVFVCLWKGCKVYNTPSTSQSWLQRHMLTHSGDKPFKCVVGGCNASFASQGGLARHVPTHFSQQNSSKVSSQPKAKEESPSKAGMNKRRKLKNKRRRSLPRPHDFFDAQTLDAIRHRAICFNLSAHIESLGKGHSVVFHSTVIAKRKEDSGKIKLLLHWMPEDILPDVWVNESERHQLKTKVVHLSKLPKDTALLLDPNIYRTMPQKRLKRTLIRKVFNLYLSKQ
The experiment in a line: in vitro methyltransferase assay with recombinant PRC2 and histone H3.[…], western blot readout. In kind it is biochemical. (In general: A western blot detects proteins with antibodies after separation by electrophoresis.)

In experiment [3] the target is EED (hEED) (Homo sapiens, UniProt O75530). The experiment in a line: SPR (Biacore T200), EED immobilized on CM5 chip. In kind it is binding. A general note: In SPR one partner is held on a chip, and binding of the other changes the refractive index at the surface.
Sequence of EED (hEED) (O75530 2-441): as the sequence (O75530 2-441 partner) above

Sequence of EZH2 (zEZH2) (Q08BS4 whole entry): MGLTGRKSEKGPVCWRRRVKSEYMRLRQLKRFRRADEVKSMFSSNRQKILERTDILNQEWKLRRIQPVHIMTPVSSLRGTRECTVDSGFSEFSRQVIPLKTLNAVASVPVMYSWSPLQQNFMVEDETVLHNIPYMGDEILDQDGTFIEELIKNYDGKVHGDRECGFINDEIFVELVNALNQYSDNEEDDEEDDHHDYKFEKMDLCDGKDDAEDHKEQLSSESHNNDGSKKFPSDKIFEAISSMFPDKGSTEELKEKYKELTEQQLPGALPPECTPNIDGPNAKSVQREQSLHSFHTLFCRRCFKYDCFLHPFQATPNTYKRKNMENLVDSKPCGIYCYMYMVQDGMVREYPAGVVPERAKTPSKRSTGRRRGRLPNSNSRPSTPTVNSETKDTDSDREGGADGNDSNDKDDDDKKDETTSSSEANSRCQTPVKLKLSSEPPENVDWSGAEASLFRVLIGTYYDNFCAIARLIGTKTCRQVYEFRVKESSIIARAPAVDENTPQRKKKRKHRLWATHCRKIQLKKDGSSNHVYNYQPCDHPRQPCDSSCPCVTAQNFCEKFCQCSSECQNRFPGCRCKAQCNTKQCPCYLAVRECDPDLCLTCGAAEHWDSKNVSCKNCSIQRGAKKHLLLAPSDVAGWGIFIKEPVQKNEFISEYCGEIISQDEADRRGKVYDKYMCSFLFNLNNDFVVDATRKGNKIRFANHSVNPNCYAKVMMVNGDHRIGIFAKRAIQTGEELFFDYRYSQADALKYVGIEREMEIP

For `Cc1coc2c1C(=O)C(=O)c1c-2ccc2c(C)cccc12` [Tan I, Tanshinone I], the results for the Kd in experiment [1] and in experiment [3] were 29.4 µM and 94.5 µM, respectively. Moreover, the “in vitro methyltransferase assay with recombinant PRC2 and histone H3.3, western” value in experiment [2] is ~ 5 μM.

The Kd is the equilibrium constant for the complex coming apart.
